The target in assay [1] is T1, Sterol O-acyltransferase 2 (Chlorocebus aethiops, UniProt O77759).
T1 sequence (O77759 whole entry): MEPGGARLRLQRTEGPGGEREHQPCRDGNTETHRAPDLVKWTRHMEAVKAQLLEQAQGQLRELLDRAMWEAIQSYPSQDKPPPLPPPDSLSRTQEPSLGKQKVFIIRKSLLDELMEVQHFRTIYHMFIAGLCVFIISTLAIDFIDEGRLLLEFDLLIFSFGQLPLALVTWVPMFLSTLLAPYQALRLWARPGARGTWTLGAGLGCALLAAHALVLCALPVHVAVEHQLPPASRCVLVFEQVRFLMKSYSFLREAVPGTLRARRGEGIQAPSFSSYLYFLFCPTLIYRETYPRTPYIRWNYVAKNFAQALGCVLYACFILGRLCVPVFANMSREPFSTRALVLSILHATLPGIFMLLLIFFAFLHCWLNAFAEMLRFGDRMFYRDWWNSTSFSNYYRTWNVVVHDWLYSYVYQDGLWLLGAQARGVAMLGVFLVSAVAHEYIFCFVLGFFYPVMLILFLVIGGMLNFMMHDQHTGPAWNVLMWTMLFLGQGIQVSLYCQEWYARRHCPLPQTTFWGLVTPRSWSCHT
Nature of the assay: Inhibition of African green monkey ACAT2 expressed in CHO cells assessed as reduction in [14C]CE formation using [1-14C]oleoyl-CoA measured after 6 hrs by TLC method. Format: cell-based.

Assay [2] has as its target T2, Sterol O-acyltransferase 1 (Homo sapiens, UniProt P35610).
T2 sequence (P35610 whole entry): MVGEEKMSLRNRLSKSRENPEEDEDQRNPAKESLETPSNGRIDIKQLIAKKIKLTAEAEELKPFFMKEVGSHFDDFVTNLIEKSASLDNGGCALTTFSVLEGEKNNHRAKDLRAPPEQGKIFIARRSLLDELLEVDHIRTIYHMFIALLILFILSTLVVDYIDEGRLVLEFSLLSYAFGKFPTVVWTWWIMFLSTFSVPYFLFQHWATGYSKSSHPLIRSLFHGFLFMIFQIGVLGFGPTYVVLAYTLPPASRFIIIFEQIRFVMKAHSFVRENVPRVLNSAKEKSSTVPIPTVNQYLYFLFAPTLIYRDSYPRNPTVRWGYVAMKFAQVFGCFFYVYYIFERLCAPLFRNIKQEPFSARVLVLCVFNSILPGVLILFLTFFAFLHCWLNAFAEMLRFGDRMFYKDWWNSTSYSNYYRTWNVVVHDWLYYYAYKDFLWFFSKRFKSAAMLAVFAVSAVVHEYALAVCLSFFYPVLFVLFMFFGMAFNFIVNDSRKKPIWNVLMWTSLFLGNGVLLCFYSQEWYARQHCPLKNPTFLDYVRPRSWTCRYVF
Nature of the assay: Inhibition of human ACAT1.

The species entered for a further assay is Homo sapiens. The experiment in a line: Selectivity ratio of IC50 for human ACAT2 to IC50 for human ACAT1.
In assay [3] the target is T3, Sterol O-acyltransferase 2 (Homo sapiens, UniProt O75908).
T3 sequence (O75908 whole entry): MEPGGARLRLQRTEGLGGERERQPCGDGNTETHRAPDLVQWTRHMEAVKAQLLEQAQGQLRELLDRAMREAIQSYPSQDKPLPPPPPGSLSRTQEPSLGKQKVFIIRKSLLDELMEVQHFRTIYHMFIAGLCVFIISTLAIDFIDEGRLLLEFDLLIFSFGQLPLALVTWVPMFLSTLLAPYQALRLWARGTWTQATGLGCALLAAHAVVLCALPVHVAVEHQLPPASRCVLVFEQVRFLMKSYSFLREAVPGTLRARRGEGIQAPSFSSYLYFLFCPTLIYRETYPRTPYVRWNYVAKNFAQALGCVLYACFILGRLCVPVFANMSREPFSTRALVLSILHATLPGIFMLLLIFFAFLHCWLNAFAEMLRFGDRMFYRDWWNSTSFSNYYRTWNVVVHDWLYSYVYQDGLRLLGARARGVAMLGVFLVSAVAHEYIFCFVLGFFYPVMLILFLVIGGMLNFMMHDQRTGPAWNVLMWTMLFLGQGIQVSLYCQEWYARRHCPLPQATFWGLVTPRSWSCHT
Nature of the assay: Inhibition of human ACAT2.

In assay [4] the test system is Mus musculus. The experiment in a line: Reduction in brain cholesteryl esters in C57BL/6 mouse overexpressing human APP751 with London (V717I) and Swedish ([…]) mutation administered as pellets into bloodstream. Format: functional.
Assay [5] concerns Mus musculus. The experiment in a line: Reduction in accumulation of amyloid plaque in C57BL/6 mouse overexpressing human APP751 with London (V717I) and Swedish ([…]) mutation administered as pellets into bloodstream. Format: functional.
Assay [6] has as its system Mus musculus. The experiment in a line: Reduction in membrane/insoluble amyloid beta level in C57BL/6 mouse overexpressing human APP751 with London (V717I) and Swedish ([…]) mutation administered as pellets into bloodstream. Type of assay: functional.
In assay [7] the test system is Mus musculus. The experiment in a line: Reduction in soluble amyloid beta42 in brain homogenates of C57BL/6 mouse overexpressing human APP751 with London (V717I) and Swedish ([…]) mutation administered as pellets into bloodstream. Type of assay: functional.
Assay [8] addresses T1, Sterol O-acyltransferase 2. The experiment in a line: Inhibition of African green monkey ACAT2 expressed in mouse AC29 cells assessed as reduction in esterification of NBD-cholesterol preincubated for 20 mins followed by NBD-cholesterol addition measured after 6 hrs by high-performance TLC method. Format: cell-based.
Assay [9] concerns the target T3, Sterol O-acyltransferase 2. Nature of the assay: Inhibition of ACAT2 (unknown origin).
The target in assay [10] is T4, Sterol O-acyltransferase 1 (Mus musculus) (UniProt Q61263).
T4 sequence (whole entry): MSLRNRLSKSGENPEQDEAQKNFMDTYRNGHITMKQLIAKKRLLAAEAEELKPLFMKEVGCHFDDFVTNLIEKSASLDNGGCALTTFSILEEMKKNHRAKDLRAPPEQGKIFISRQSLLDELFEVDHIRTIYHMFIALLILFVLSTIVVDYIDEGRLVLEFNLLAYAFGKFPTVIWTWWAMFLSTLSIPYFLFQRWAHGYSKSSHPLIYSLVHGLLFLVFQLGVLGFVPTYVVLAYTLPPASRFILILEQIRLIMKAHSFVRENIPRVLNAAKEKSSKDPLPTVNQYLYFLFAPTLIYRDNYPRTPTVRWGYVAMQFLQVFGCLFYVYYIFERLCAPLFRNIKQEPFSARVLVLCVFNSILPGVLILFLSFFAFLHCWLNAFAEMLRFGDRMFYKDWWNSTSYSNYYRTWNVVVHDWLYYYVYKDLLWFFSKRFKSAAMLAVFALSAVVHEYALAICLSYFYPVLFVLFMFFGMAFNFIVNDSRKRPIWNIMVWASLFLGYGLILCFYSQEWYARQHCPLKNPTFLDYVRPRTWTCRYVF
The experiment in a line: Inhibition of ACAT1 in mouse N9 cells assessed as increase in autophagic flux by measuring LC3-2 levels in presence of Torin-1 by Western blot analysis. Type of assay: cell-based. For orientation: A western blot detects proteins with antibodies after separation by electrophoresis.

The target in assay [11] is T4, Sterol O-acyltransferase 1 (Mus musculus). Nature of the assay: Inhibition of ACAT1 in mouse N9 cells assessed as increase in TFEB target genes mRNA expression measured after 8 hrs by qPCR analysis. Type of assay: cell-based. (In general: Quantitative PCR measures a nucleic acid by following its amplification.)
Assay [12] shares this target. Nature of the assay: Inhibition of ACAT1 in mouse N9 cells assessed as effect on autophagosome formation by measuring LC3-2 levels in presence of squalene synthase inhibitor CP-340868. Format: cell-based.
Assay [13] shares this target. The experiment in a line: Inhibition of ACAT1 in mouse N9 cells assessed as effect on […] by measuring p62 levels in presence of Torin-1 by Western blot analysis. Format: cell-based.
The target is the same in assay [14]. Nature of the assay: Inhibition of ACAT1 in mouse N9 cells assessed as reduction in oligomeric amyloid beta 1 to 42 pretreated for 24 hrs followed by oligomeric amyloid beta 1 to 42 addition measured after 12 hrs by Western blot analysis relative to control. Format: cell-based. The note with it: concentration not given here.
For assay [15] the target is unchanged. Nature of the assay: Inhibition of ACAT1 in mouse N9 cells assessed as increase in lysosome biogenesis by measuring Lyso tracker fluorescence measured after 8 hrs by Lyso tracker staining based flow cytometry. Type of assay: cell-based.
The target is the same in assay [16]. Nature of the assay: Inhibition of ACAT1 in mouse N9 cells assessed as induction of autophagy by measuring LC3-2 at 0.1 uM by Western blot analysis. Type of assay: cell-based.
For assay [17] the target is unchanged. The experiment in a line: Inhibition of ACAT1 in mouse N9 cells assessed as increase in Cys-amyloid beta 1 to 42 uptake pretreated for 8 hrs followed by Cys-amyloid beta 1 to 42 addition measured after 3 hrs by flow cytometry relative to control. Format: cell-based. More on the design: scale not given: the % may be the effect or the level left. In general terms: A flow cytometer gives signals particle by particle.

For assay [18] the target is unchanged. Nature of the assay: Inhibition of ACAT1 in TFEB knock-down mouse N9 cells assessed as autophagosome formation by measuring LC3-2 levels. Type of assay: cell-based.
For assay [19] the target is unchanged. The experiment in a line: Inhibition of ACAT1 in mouse N9 cells at 0.1 uM measured after 8 hrs by Lyso tracker staining based flow cytometry relative to control. Format: cell-based.
For assay [20] the target is unchanged. The experiment in a line: Inhibition of ACAT1 in mouse N9 cells. Type of assay: cell-based.
For assay [21] the target is unchanged. Nature of the assay: Inhibition of ACAT1 in mouse N9 cells assessed as increase in late endosomes/lysosomes volume measured after 8 hrs by Lyso tracker staining based flow cytometry relative to control. Type of assay: cell-based. The note with it: concentration not given here.
Assay [22] has the same target. The experiment in a line: Inhibition of ACAT1 in wild type mouse microglia assessed as increase in clearance of oligomeric amyloid beta at 1 uM pretreated for 24 hrs followed by oligomeric amyloid beta addition measured after 18 hrs by western blot analysis relative to control.
Assay [23] has as its target T5, Sterol O-acyltransferase 2 (Homo sapiens) (UniProt O75908).
T5 sequence (whole entry): T3 sequence (O75908 whole entry)
Nature of the assay: Inhibition of human ACAT2 at 1 mM.

Activity calls are given as the source filed them. The calls are words filed in the database; no cut-off is given here.

In the case of `CCCC[C@H](C)[C@@H]1CC(=O)N[C@@H](Cc2ccccc2)C(=O)N[C@@H](C)C(=O)N[C@H](CC(C)C)C(=O)O1` [BEAUVERIOLIDE I], in assay [1], the IC50 is 20 µM.

Consider `CCOC(=O)OC(=O)OCC` [DIETHYL PYROCARBONATE], for which the IC50 in assay [2] amounted to 44 µM; in [3], 170 µM. The Ratio IC50 in the assay listed under Homo sapiens is 4.

With `CCCCCCCC[C@H](SCCCCCC)C(=O)Nc1c(SC)cc(C)nc1SC`, the “inhibition (INH)” value in the assay with Mus musculus [4] is listed as 86%; in the assay on Mus musculus [5], 88 - 99%; in the assay with Mus musculus [6], 83 - 96%; with Mus musculus [7] it was 34%.

Regarding `CC(C)c1cccc(C(C)C)c1NC(=O)CC(=O)C(Cc1ccccc1)Cc1ccc(OC(=O)CCCCCCN2CCCCCC2=O)cc1` (centres undefined), the IC50 in assay [8] amounted to 0.53 µM.

`CCCCCCCCCCCCS[C@H](C(=O)Nc1cc(C)c(O)c(C)c1C)c1ccccc1` [EFLUCIMIBE] registered a half-maximal inhibitory concentration (IC50) in assay [9] of 0.11 µM.

Take `CSc1cc(C)nc(SC)c1NC(=O)CN1CCN(CCSc2nc3ccccc3[nH]2)CC1`: the inhibition result in [10], in assay [11], in assay [12], in assay [13], in assay [15] and in assay [16] was “Active” each time. Also, the inhibition entry in assay [18] was “Active”. The inhibition in [14] was 58%; in assay [19], 80%; in assay [20], “Dose-dependent effect”; in assay [21] it was 27%; in assay [22], less than 65%. Moreover, in [17], the Activity worked out at 23%.

In assay [23], `COc1ccc([C@@H](O)[C@@H](C)Oc2ccc([C@H]3O[C@H](c4ccc(O[C@H](C)[C@H](O)c5ccc6c(c5)OCO6)c(OC)c4)[C@H](C)[C@H]3C)cc2OC)cc1OC` returned an inhibition of 32%.

One may read the IC50 as the concentration that gives 50% inhibition. In general, inhibition refers to the change of the read-out against control, counted positive when it falls.
